Experimental data from US20240398781A1, “SPIROCYCLIC CYCLIC MODULATORS OF CHOLESTEROL BIOSYNTHESIS AND THEIR USE FOR PROMOTING REMYELINATION” (GENENTECH, INC., priority 2021, published 2024).

Columns and labels:
[1] = system: EBP (zymostenol accumulation in EpiSC-derived OPCs); assay: GC/MS-based sterol profiling, zymostenol accumulation in OPCs; format: cell-based, mouse; details: Mus musculus, 24 h, EpiSC-derived OPCs, 24 hr treatment, 8 doses from 0.15 nM to 333 nM; read-out: Zymostenol GCMS EC50
Procedure, shortened: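 EpiSC-derived OPCs (100,000/well) were treated 24 h in N2B27 without growth factors. Sterols were TMS-derivatized and analysed by GC/MS full-scan EI, quantified against cholesterol-d7. Zymostenol was normalized to the level after 24 h with 100 nM positive control reference.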

human EBP = human EBP (Homo sapiens (Human), UniProt Q15125); assay: Competition binding assay (SPA, [3H]-Ifenprodil) to determine compound affinity to EBP; details: [3H]-Ifenprodil 10 nM, HEK293 membrane overexpressing human EBP, Ki=IC50/(1+[L]/Kd); read-out: hEBP SPA Ki
Procedure: Membrane preparation: To examine compound binding affinity to EBP, human EBP was overexpressed in human embryonic kidney 293 cells. Cell pellet was lysed in 10 times weight binding buffer (50 mM Tris, 5 mM MgCl2, 0.1 mM EDTA, lx protease inhibitor cocktail, pH 7.5) on ice by using a dounce homogenizer. The solution was centrifuged at 25,000 g for 50 min at 4° C. The membrane pellet was re-suspended in binding buffer and run through a 25 5/8 gauge needle. After checking the concentration by Bradford assay, the whole cell membrane solution was adjusted to 20 mg/mL and stored at −80° C.
This binding solution was centrifuged at 400 g for 5 minutes to collect the bead/membrane mixture. After re-suspending the pellet in binding buffer at the same calculated volume with 0.01% BSA (Sigma A1933), the bead/membrane mixture was added in 384-well low-binding surface plate (PerkinElmer Cat #6057480) at 25 μl/well. Radioligand at different concentrations with and without the non-radio-labeled same ligand 5 uM (for nonspecific and total signal, respectively) was added to bring final volume to 50 µl/well with DMSO concentration at 0.1%. At equilibrium (3 hours after ligand addition), radiometric signal CPM was counted by using a Microbeta2 microplate counter (Perkinelmer).
Competition binding assay to determine compound affinity: The same conditions of the radioligand Kd study were used for compound single dose percentage inhibition and equilibrium dissociation constant Ki examinations, except 50 nL compound DMSO stock was pre-added in 384-well low-binding surface plate (PerkinElmer Cat #6057480) by Echo 550 (Labcyte) to reach the final concentration for single dose test at 1 uM, and dose response test from 0.06 nM to 5 uM (8 dose, 5 times dilution). A pre-incubated bead/membrane mixture was added in compound plate at 0.3 mg beads and […] membrane per well. […] At equilibrium (3 hours after ligand addition), radiometric signal was counted as described above. The percentage inhibition of compound at each testing concentration was calculated by normalizing each condition's CPM readout to full block (5 uM non-radiolabeled ligand) and non-block (DMSO) control conditions. Compound binding inhibition IC50 was determined by nonlinear regression fitting of percentage inhibition plot against compound concentration. Compound Ki was calculated from the equation Ki=IC50/(1+[L]/Kd), which [L] was radioligand concentration used in assay. All tests had N bigger or equal to 2.

[2] = target: human emopamil binding protein and human 7-dehydrocholesterol reductase co-expressing cells (hEBP-DHCR7 membrane) (Homo sapiens (Human), UniProt Q15125); assay: Radioligand filter binding assay on hEBP-DHCR7 membrane; details: [3H]-(S)-6-(2-Methyl-3-(6-(trifluoromethyl)pyridin-3-yl)propyl)-2-thia-6-azaspiro[3.4]octane 2,2-dioxide radioligand, HEK293 membrane co-expressing hEBP and hDHCR7
Procedure, shortened: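 HEK293 cells transiently co-expressing human EBP and DHCR7 supplied whole-cell membranes (10 μg/well), incubated 3 h at 22 °C with [3H]-labelled spiro-octane dioxide ligand (added at 25 nM) and compound (0.06-5000 nM final, 8 doses, n=2). Bound ligand was collected on PEI-treated GF/B filters and counted by scintillation. IC50 was Hill-fitted from % inhibition and reported as Ki.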

EpiSC-derived OPCs = assay: In vitro phenotypic screening of OPCs (MBP staining, high-content imaging); format: cell-based, mouse; details: Mus musculus, 72 h, percentage of MBP+ oligodendrocytes, 3 days, 0.5 nM to 1000 nM; read-out: OPC EC50
Procedure, shortened: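 EpiSC-derived mouse OPCs seeded at 150,000/cm^2 on laminin in N2B27 without growth factors, treated 3 days at 37° C. with compound (8 points, 1000 nM to 0.5 nM). Fixed cells stained for MBP and DAPI and imaged; percentage of MBP+ oligodendrocytes fitted by Hill equation for EC50.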

human emopamil binding protein and human 7-dehydrocholesterol reductase co-expressing cells (hEBP-DHCR7 membrane), sequence (Q15125 whole entry): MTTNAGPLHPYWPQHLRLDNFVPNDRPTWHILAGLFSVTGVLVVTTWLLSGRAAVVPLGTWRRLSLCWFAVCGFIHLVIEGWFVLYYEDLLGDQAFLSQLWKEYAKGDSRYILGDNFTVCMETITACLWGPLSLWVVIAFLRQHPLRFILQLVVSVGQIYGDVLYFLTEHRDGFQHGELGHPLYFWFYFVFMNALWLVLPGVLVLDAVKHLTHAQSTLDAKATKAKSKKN
human EBP, sequence (Q15125 whole entry): as above

| Structure (SMILES) | EC50 [1] [nM] | Ki (human EBP) [nM] | Ki [2] [nM] | EC50 (EpiSC-derived OPCs) [nM] |
| --- | --- | --- | --- | --- |
| Cc1cc(C(F)(F)F)cnc1[C@H]1CC[C@@H](N2CCC3(C2)CS(=O)(=O)C3)CC1 [Compound 47A, 6-((1s,4s)-4-(3-methyl-5-(trifluoromethyl)pyridin-2-yl)cyclohexyl)-2-thia-6-azaspiro[3.4]octane 2,2-dioxide] | 9.1 | 11 | 11 | – |
| CC(C)n1nc(-c2ccc(C(F)(F)F)nc2)nc1[C@@H]1CC[C@H](N2CCC3(C2)CS(=O)(=O)C3)C1 (single isomer, unassigned) [17A*] | 2.1 | 22 | 24 | – |
| CC(C)n1nc(-c2ccc(C(F)(F)F)nc2)nc1[C@@H]1CC[C@@H](N2CCC3(C2)CS(=O)(=O)C3)C1 (single isomer, unassigned) [17C*] | 2.9 | 18 | – | 13 |
| CC(C)n1nc(C(F)(F)F)cc1[C@@H]1CC[C@@H](N2CCC3(C2)CS(=O)(=O)C3)C1 (single isomer, unassigned) [10D*] | 44 | 43 | 33.1 | – |
| CC(C)n1nc(-c2ccc(C(F)(F)F)cc2)nc1[C@H]1CC[C@H](N2CCC3(C2)CS(=O)(=O)C3)C1 (single isomer, unassigned) [53A*] | 1.2 | – | 12 | 2.3 |
| O=S1(=O)CC[C@@]2(CCCN([C@H]3CC[C@H](c4ccc(C(F)(F)F)cn4)CC3)C2)C1 (single isomer, unassigned) [68B*] | 5.8 | – | 41 | 22 |
| CC(C)(C)n1nc(C2CC2)nc1[C@H]1CC[C@@H](N2CCC3(C2)CS(=O)(=O)C3)C1 [Compound 74B, 6-((1R,3S)-3-(1-(tert-butyl)-3-cyclopropyl-1H-1,2,4-triazol-5-yl)cyclopentyl)-2-thia-6-azaspiro[3.4]octane 2,2-dioxide] | 17 | – | 494 | 76 |
| CCc1nc(C(F)(F)F)ccc1[C@H]1CC[C@H](N2CCC3(C2)CS(=O)(=O)C3)CC1 [Compound 64A, 6-((1r,4r)-4-(2-ethyl-6-(trifluoromethyl)pyridin-3-yl)cyclohexyl)-2-thia-6-azaspiro[3.4]octane 2,2-dioxide] | 3.7 | – | 15 | 11 |
| O=S1(=O)CC2(CCN(C3CCN(c4ncc(C(F)(F)F)cc4C4CC4)CC3)C2)C1 [Compound 44, 6-(1-(3-Cyclopropyl-5-(trifluoromethyl)pyridin-2-yl)piperidin-4-yl)-2-thia-6-azaspiro[3.4]octane 2,2-dioxide] | 4 | – | 9 | 14 |
